From patent publication US7300925B2, “2-ethyl and 2-ethylidene-19-nor-vitamin D compounds” (Wisconsin Alumni Research Foundation, priority 2000, dated 2007)
Where “and” joins values, the source holds several entries; their conditions need not be identical. Equal entries are not always repeated.

Columns and labels:
[1] = system: intestinal calcium transport; experiment: support of intestinal calcium transport in vitamin D-deficient rats on a low-calcium diet; format: in vivo; details: for Ca transport S/M (mean ± SEM): vitamin D-deficient rats, low-calcium diet, 24 hours after the last dose
[2] = system: bone calcium mobilization; experiment: bone calcium mobilization (serum Ca) in vitamin D-deficient rats on a low-calcium diet; format: in vivo; details: for Serum Ca (mean ± SEM): vitamin D-deficient rats, low-calcium diet, 24 hours after the last dose
[3] = system: human promyelocyte HL-60 cells; experiment: induction of differentiation of HL-60 cells into monocytes; format: cell-based; details: compared with 1α,25-(OH)2D3; FIG. 6a, 6b
Protocol: FIG. 6a is a graph illustrating the percent HL-60 cell differentiation as a function of the concentration of the 2-ethylidene-19-nor-vitamins as compared to 1α,25-dihydroxyvitamin D3; and
FIG. 6b is a graph illustrating the percent HL-60 cell differentiation as a function of the concentration of the 2α and 2β-ethyl-19-nor-vitamins as compared to 1α,25-dihydroxyvitamin D3.
The synthesized vitamins were tested for their ability to bind the porcine intestinal vitamin D receptor. […] In the next assay, the cellular activity of the synthesized compounds was established by studying their ability to induce differentiation of human promyelocyte HL-60 cells into monocytes.

[4] = 130 pmol daily i.p. for seven days
[5] = 260 pmol daily i.p. for seven days
[6] = 65 pmol daily i.p. for seven days

## C=C1/C(=C\C=C2/CCC[C@]3(C)[C@@H]([C@H](C)CCCC(C)(C)O)CC[C@@H]23)C[C@@H](O)C[C@@H]1O [Compound 1, 1α,25-dihydroxyvitamin D3, reference compound]
[1]; [4]
  Ca transport S/M (mean ± SEM): 4.9 ± 0.7 and 5.5 ± 0.5
[1]; [5]
  Ca transport S/M (mean ± SEM): 5.9 ± 0.4 and 6.0 ± 0.9 and 6.5 ± 0.9
[2]; [4]
  Serum Ca (mean ± SEM): 5.2 ± 0.2 and 5.1 ± 0.3
[2]; [5]
  Serum Ca (mean ± SEM): 5.8 ± 0.3 and 6.4 ± 0.4 and 5.8 ± 0.1

## CC=C1C(O)CC(=CC=C2CCCC3(C)C2CCC3C(C)CCCC(C)(C)O)CC1O (stereo not drawn) [Compound 4a, 1α,25-dihydroxy-2(E)-ethylidene-19-nor-vitamin D3]
[1]; [6]
  Ca transport S/M (mean ± SEM): 5.0 ± 0.4
[1]; [4]
  Ca transport S/M (mean ± SEM): 6.8 ± 0.4
[2]; [6]
  Serum Ca (mean ± SEM): 4.5 ± 0.1
[2]; [4]
  Serum Ca (mean ± SEM): 5.2 ± 0.2

## CC=C1[C@H](O)CC(=C/C=C2\CCC[C@@]3(C)C2CCC3[C@@H](C)CCCC(C)(C)O)C[C@H]1O (stereo partly drawn) [Compound 4b, 2-ethylidene-19-nor-(20S)-1α,25-(OH)2D3 (E-isomer)]
[3]
  ability to induce differentiation of HL-60 cells into monocytes (in words): more potent than 1α,25-(OH)2D3
[1]; [6]
  Ca transport S/M (mean ± SEM): 9.0 ± 0.3
[1]; [4]
  Ca transport S/M (mean ± SEM): 5.8 ± 0.8
[2]; [6]
  Serum Ca (mean ± SEM): 8.2 ± 0.3
[2]; [4]
  Serum Ca (mean ± SEM): 12.1 ± 0.6
[2]; overall judgement of Table 1 (intestine and bone)
  calcemic activity in vivo in rats (in words): especially potent

## CC=C1C(O)CC(=CC=C2CCCC3(C)C2CCC3C(C)CCCC(C)(C)O)CC1O (stereo not drawn) [Compound 5a, 1α,25-dihydroxy-2(Z)-ethylidene-19-nor-vitamin D3]
[1]; [6]
  Ca transport S/M (mean ± SEM): 4.4 ± 0.4
[1]; [4]
  Ca transport S/M (mean ± SEM): 5.7 ± 0.9
[2]; [6]
  Serum Ca (mean ± SEM): 4.4 ± 0.2
[2]; [4]
  Serum Ca (mean ± SEM): 4.2 ± 0.0

## CC=C1[C@H](O)CC(=C/C=C2\CCC[C@@]3(C)C2CCC3[C@@H](C)CCCC(C)(C)O)C[C@H]1O (stereo partly drawn) [Compound 5b, 2-ethylidene-19-nor-(20S)-1α,25-(OH)2D3 (Z-isomer)]
[1]; [6]
  Ca transport S/M (mean ± SEM): 4.3 ± 0.7
[1]; [4]
  Ca transport S/M (mean ± SEM): 3.8 ± 0.3
[2]; [6]
  Serum Ca (mean ± SEM): 4.0 ± 0.3
[2]; [4]
  Serum Ca (mean ± SEM): 4.0 ± 0.1

## CCC1C(O)CC(=CC=C2CCCC3(C)C2CCC3C(C)CCCC(C)(C)O)CC1O (stereo not drawn) [Compound 6a, 2α-ethyl-19-nor-1α,25-(OH)2D3]
[1]; [5]
  Ca transport S/M (mean ± SEM): 4.0 ± 0.4
[2]; [5]
  Serum Ca (mean ± SEM): 5.1 ± 0.1

## CCC1C(O)CC(=CC=C2CCCC3(C)C2CCC3C(C)CCCC(C)(C)O)CC1O [Compound 6b, 2α-ethyl-19-nor-(20S)-1α,25-(OH)2D3]
[1]; [5]
  Ca transport S/M (mean ± SEM): 5.0 ± 0.4
[1]; rats, Table 1
  intestinal activity (in words): marked intestinal activity
[2]; [5]
  Serum Ca (mean ± SEM): 7.0 ± 0.1
[2]; rats, Table 1
  ability to mobilize calcium from bone (in words): strong calcium mobilization response

## CCC1C(O)CC(=CC=C2CCCC3(C)C2CCC3C(C)CCCC(C)(C)O)CC1O (stereo not drawn) [Compound 7a, 2β-ethyl-19-nor-1α,25-(OH)2D3]
[1]; [5]
  Ca transport S/M (mean ± SEM): 3.7 ± 0.3
[2]; [5]
  Serum Ca (mean ± SEM): 5.0 ± 0.1

## CCC1C(O)CC(=CC=C2CCCC3(C)C2CCC3C(C)CCCC(C)(C)O)CC1O [Compound 7b, 2β-ethyl-19-nor-(20S)-1α,25-(OH)2D3]
[1]; [5]
  Ca transport S/M (mean ± SEM): 4.1 ± 0.3
[2]; [5]
  Serum Ca (mean ± SEM): 5.6 ± 0.1
